Experimental data taken from US8426420B2, “Heterocyclic pyrazole-carboxamidesas P2Y12 antagonists” (Sanofi, priority 2007, dated 2013).

Key:
[1] = system: human platelet rich plasma; experiment: Inhibition of human platelet aggregation, 96-well assay; type: cell-based; details: Homo sapiens, Platelet, 20 min
Procedure, shortened: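 ADP-induced aggregation read as 650 nm absorbance every minute for 20 min at 37 °C, with shaking between reads. PRP (~3×E8 platelets/ml, diluted with PPP, ACD-A blood from healthy volunteers) was exposed to compound for 5 min before adding a 40 μM ADP stock (15 μl into 150 μl).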

[2] = system: human platelet rich plasma; experiment: Inhibition of human platelet aggregation, "Born"-method using single cuvettes; type: cell-based; details: 0.1 h, ADP-induced aggregation, 6 minutes
Protocol: Inhibition of Human Platelet Aggregation
Alternatively to a binding assay which measures a compound's ability to bind to the P2Y12 receptor, the effect on cellular function was also determined. This ability of the compound was evaluated in two platelet aggregation assays: in 96-well plates and with the “Born”-method using single cuvettes.
Whole blood was collected from healthy volunteers using 20 ml syringes containing 2 ml of buffered Citrate. The anticoagulated whole blood was transferred into 15 ml polypropylene conical tubes (10 ml per tube). The tubes were centrifuged for 15 minutes at 340×g at RT without using the centrifuge brake. This procedure leads to a pellet of cellular components and a supernatant of platelet rich plasma (PRP). The PRP layer was collected from each tube and pooled for each donor. To avoid carry over of cellular components following centrifugation, approximately 5 ml of PRP was left in the tube. The platelet concentration was determined using a Coulter Counter.
The 15 ml tubes containing the pellet of cellular components were centrifuged again for 10 minutes at 1940×g. This pelleted out most particulate blood constituents remaining, leaving a layer of Platelet Poor Plasma (PPP). The PPP was collected for each donor. The PRP layer, previously set aside, was diluted with PPP to a final concentration of approximately 3×E8 platelets/ml with the PPP.
The human platelet aggregation assay is performed in single use cuvettes using the platelet aggregation profiler (PAP-4 or -8, Bio/Data corporation).
In the assay cuvette 4 μl of test compound at 100× final concentration in DMSO is mixed with 392 μl fresh PRP and incubated for 2 minutes at 37° C. with 1.200 rpm stirring. Following that incubation period, 4 μl of 250 μM ADP is added to the reaction mix. This addition of ADP is sufficient to induce aggregation in the absence of an inhibitor. After that aggregation is measured over 6 minutes at 37° C. with 1.200 rpm stirring. Results of the assay are expressed as % inhibition, and are calculated using maximum aggregation (Tmax) or area under curve (AUC) of the absorbance over 6 minutes.
The IC50 data of the above described platelet aggregation assay using human platelet rich plasma for exemplary compounds of the present invention are shown in table 3.

human P2Y12 receptor = human P2Y12 receptor (Homo sapiens, UniProt Q9H244); experiment: Human P2Y12 recombinant cell membrane binding assay with 33P 2MeS-ADP; details: competition against 33P 2MeS-ADP, membranes of CHO cells with recombinant human P2Y12 receptor
Sequence of human P2Y12 receptor (Q9H244 whole entry): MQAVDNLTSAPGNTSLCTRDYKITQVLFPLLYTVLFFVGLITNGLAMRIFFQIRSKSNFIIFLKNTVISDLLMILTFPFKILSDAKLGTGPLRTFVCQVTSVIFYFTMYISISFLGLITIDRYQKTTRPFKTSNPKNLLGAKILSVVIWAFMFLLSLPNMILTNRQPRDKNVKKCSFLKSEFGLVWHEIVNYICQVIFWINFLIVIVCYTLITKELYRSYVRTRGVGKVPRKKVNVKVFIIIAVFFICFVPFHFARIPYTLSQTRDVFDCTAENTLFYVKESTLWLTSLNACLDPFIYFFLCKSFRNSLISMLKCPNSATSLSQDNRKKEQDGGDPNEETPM
Procedure, shortened: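 CHO membranes expressing human P2Y12 (20 μg/ml stock) preincubated 15 min at RT with compound in HEPES pH 7.4 buffer, then 33P 2MeS-ADP (1.61 nM working solution) added for 20 min at RT. Bound label filtered and counted; four-point, five-fold series from 10 μM final, triplicate, four-parameter fit.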

SMILES | IC50 [1] [nM] | IC50 [2] [nM] | IC50 (human P2Y12 receptor) [nM]
CCCOC(=O)N1CCN(C(=O)[C@@H](C)NC(=O)c2cc(OCC(=O)N3CCC[C@H]3C(=O)NC3CCC3)n(-c3ccccc3)n2)CC1 [Example 206, 4-[(R)-2-({5-[2-((S)-2-Cyclobutylcarbamoyl-pyrrolidin-1-yl)-2-oxo-ethoxy]-1-phenyl-1H-pyrazole-3-carbonyl}-amino)-propionyl]-piperazine-1-carboxylic acid propyl ester] | 410 |  | 187
CCCOC(=O)N1CCN(C(=O)[C@H](C)NC(=O)c2cc(OCC(=O)N3CCC[C@H]3C(=O)NC3CCC3)n(-c3ccccc3)n2)CC1 [Example 208, 4-[(S)-2-({5-[2-((S)-2-Cyclobutylcarbamoyl-pyrrolidin-1-yl)-2-oxo-ethoxy]-1-phenyl-1H-pyrazole-3-carbonyl}-amino)-propionyl]-piperazine-1-carboxylic acid propyl ester] | 390 |  | 126
CCCCOC(=O)N1CCN(C(=O)[C@H](CCCOC(C)=O)NC(=O)c2cc(OCC(=O)N3CCC[C@H]3C(=O)NC3CCC3)n(-c3ccccc3)n2)CC1 [Example 211, 4-[(S)-5-Acetoxy-2-({5-[2-((S)-2-cyclobutylcarbamoyl-pyrrolidin-1-yl)-2-oxo-ethoxy]-1-phenyl-1H-pyrazole-3-carbonyl}-amino)-pentanoyl]-piperazine-1-carboxylic acid butyl ester] | 280 |  | 20
CCCCOC(=O)N1CCN(C(=O)[C@H](CCCCO)NC(=O)c2cc(OCC(=O)N3CCC[C@H]3C(=O)NC3CCC3)n(-c3ccccc3)n2)CC1 [Example 213, 4-[(S)-2-({5-[2-((S)-2-Cyclobutylcarbamoyl-pyrrolidin-1-yl)-2-oxo-ethoxy]-1-phenyl-1H-pyrazole-3-carbonyl}-amino)-6-hydroxy-hexanoyl]-piperazine-1-carboxylic acid butyl ester] | 330 |  | 22
CCCCOC(=O)N1CCN(C(=O)[C@H](CCC)NC(=O)c2cc(OCC(=O)N3CCC[C@H]3C(=O)NC3CCC3)n(-c3ccccc3)n2)CC1 [Example 221, 4-[(S)-2-({5-[2-((S)-2-Cyclobutylcarbamoyl-pyrrolidin-1-yl)-2-oxo-ethoxy]-1-phenyl-1H-pyrazole-3-carbonyl}-amino)-pentanoyl]-piperazine-1-carboxylic acid butyl ester] | 260 |  | 34
CCCCOC(=O)N1CCN(C(=O)[C@@H](NC(=O)c2cc(OCC(=O)N3CCC[C@H]3C(=O)NC3CCC3)n(-c3ccccc3)n2)C(C)C)CC1 [Example 222, 4-[(S)-2-({5-[2-((S)-2-Cyclobutylcarbamoyl-pyrrolidin-1-yl)-2-oxo-ethoxy]-1-phenyl-1H-pyrazole-3-carbonyl}-amino)-3-methyl-butyryl]-piperazine-1-carboxylic acid butyl ester] | 260 |  | 28
CCCCOC(=O)N1CCN(C(=O)[C@H](COC)NC(=O)c2cc(OCC(=O)N3CCC[C@H]3C(=O)NC3CCC3)n(-c3ccccc3)n2)CC1 [Example 232, 4-[(S)-2-({5-[2-((S)-2-Cyclobutylcarbamoyl-pyrrolidin-1-yl)-2-oxo-ethoxy]-1-phenyl-1H-pyrazole-3-carbonyl}-amino)-3-methoxy-propionyl]-piperazine-1-carboxylic acid butyl ester] | 410 |  | 16
O=C(NCC(=O)N1CCN(C(=O)OC2CCCC2)CC1)c1cc(OCC(=O)N2CCC[C@H]2C(=O)NC2CCC2)n(-c2ccccc2)n1 [Example 268, 4-[2-({5-[2-((S)-2-Cyclobutylcarbamoyl-pyrrolidin-1-yl)-2-oxo-ethoxy]-1-phenyl-1H-pyrazole-3-carbonyl}-amino)-acetyl]-piperazine-1-carboxylic acid cyclopentyl ester] | 20 |  | 99
CCCCOC(=O)N1CCN(C(=O)CNC(=O)c2cc(OCC(=O)N3C[C@H](O)C[C@H]3C(=O)NC3CCC3)n(-c3ccccc3)n2)CC1 [Example 270, 4-[2-({5-[2-((2S,4R)-2-Cyclobutylcarbamoyl-4-hydroxy-pyrrolidin-1-yl)-2-oxo-ethoxy]-1-phenyl-1H-pyrazole-3-carbonyl}-amino)-acetyl]-piperazine-1-carboxylic acid butyl ester] | 17 |  | 40
CCCOC(=O)N1CCN(C(=O)[C@H](CC(F)(F)F)NC(=O)c2cc(OCC(=O)N3CCC[C@H]3C(=O)NC3CCC3)n(-c3ccccc3)n2)CC1 [Example 273, 4-[(S)-2-({5-[2-((S)-2-Cyclobutylcarbamoyl-pyrrolidin-1-yl)-2-oxo-ethoxy]-1-phenyl-1H-pyrazole-3-carbonyl}-amino)-4,4,4-trifluoro-butyryl]-piperazine-1-carboxylic acid propyl ester] | 380 |  | 160

The remaining lines, values ahead:

IC50 [1] [nM] | IC50 [2] [nM] | IC50 (human P2Y12 receptor) [nM] | SMILES
30 | 120 |  | CCCCNC(=O)[C@@H]1CCCN1C(=O)COc1cc(C(=O)N[C@@H](CCC(=O)O)C(=O)N2CCN(C(=O)OCC)CC2)nn1-c1ccccc1 [Example 11, 4-{(S)-4-Carboxy-2-[(5-{2-[(S)-2-butylcarbamoyl-pyrrolidin-1-yl]-2-oxo-ethoxy}-1-phenyl-1H-pyrazole-3-carbonyl)-amino]-butyryl}-piperazine-1-carboxylic acid ethyl ester]
10 | 38 |  | CCOC(=O)N1CCN(C(=O)[C@H](CCC(=O)O)NC(=O)c2cc(OCC(=O)N3CCC[C@H]3C(=O)NC3CCCC3)n(-c3ccccc3)n2)CC1 [Example 13, 4-{(S)-4-Carboxy-2-[(5-{2-[(S)-2-cyclopentylcarbamoyl-pyrrolidin-1-yl]-2-oxo-ethoxy}-1-phenyl-1H-pyrazole-3-carbonyl)-amino]-butyryl}-piperazine-1-carboxylic acid ethyl ester]
 | 46 |  | CCOC(=O)N1CCN(C(=O)[C@H](CCC(=O)O)NC(=O)c2cc(OCC(=O)N3CCC[C@H]3C(=O)NCC3CC3)n(-c3ccccc3)n2)CC1 [Example 16, 4-{(S)-4-Carboxy-2-[(5-{2-[(S)-2-(cyclopropylmethyl-carbamoyl)-pyrrolidin-1-yl]-2-oxo-ethoxy}-1-phenyl-1H-pyrazole-3-carbonyl)-amino]-butyryl}-piperazine-1-carboxylic acid ethyl ester]
 | 220 |  | CCOC(=O)N1CCN(C(=O)[C@H](CC(O)CO)NC(=O)c2cc(OCC(=O)N3CCC[C@H]3C(=O)NC3CCC3)n(-c3ccccc3)n2)CC1 (stereo partly drawn) [Example 117, 4-[(S)-2-({5-[2-((S)-2-Cyclobutylcarbamoyl-pyrrolidin-1-yl)-2-oxo-ethoxy]-1-phenyl-1H-pyrazole-3-carbonyl}-amino)-4,5-dihydroxy-pentanoyl]-piperazine-1-carboxylic acid ethyl ester]
 | 90 |  | CCOC(=O)N1CCN(C(=O)[C@H](C)NC(=O)c2cc(OCC(=O)N3CCC[C@H]3C(=O)NC3CCC3)n(-c3ccccc3)n2)CC1 [Example 185, 4-[(S)-2-({5-[2-((S)-2-Cyclobutylcarbamoyl-pyrrolidin-1-yl)-2-oxo-ethoxy]-1-phenyl-1H-pyrazole-3-carbonyl}-amino)-propionyl]-piperazine-1-carboxylic acid ethyl ester]
60 |  | 18 | CCOC(=O)N1CCN(C(=O)[C@H](CF)NC(=O)c2cc(OCC(=O)N3CCC[C@H]3C(=O)NC3CCC3)n(-c3ccccc3)n2)CC1 [Example 261, 4-[(R)-2-({5-[2-((S)-2-Cyclobutylcarbamoyl-pyrrolidin-1-yl)-2-oxo-ethoxy]-1-phenyl-1H-pyrazole-3-carbonyl}-amino)-3-fluoro-propionyl]-piperazine-1-carboxylic acid ethyl ester]
